PMC9986241 (Signal Transduction and Targeted Therapy, 2023)
Where two headings read alike, the source gives them in different places.

How the values were obtained:
[1] = system: A375 (BRAF V600E); assay: Cell proliferation MTT assay; format: cell-based; conditions: Homo sapiens
Procedure: (§1) The synergism and antagonism (CI value) were determined and analyzed using CompuSyn 1.0.
(§2) For cytotoxicity test, normal NHDF (5000 cells/well) and NHEM cell line (3000 cells/well) were planted into 96-well plates. For cell proliferation assay, A375 (1500 cells/well), SK-MEL-28 (3000 cells/well), SK-MEL-2 (4000 cells/well), and HCT116 (1500 cells/well) were planted into 96-well plates, determined concentration of drug was added after culture for 24 h. The viability of the cells was detected within 72 h using MTT solution (5 mg/mL). The absorbance at 570/490 nm was quantified by the use of the microplate reader.

[2] = system: SK-MEL-28 (BRAF V600E); assay: Cell proliferation MTT assay; format: cell-based; conditions: Homo sapiens
Procedure: as §1, §2

[3] = system: HCT116 (KRAS mut); assay: Cell proliferation MTT assay; format: cell-based; conditions: Homo sapiens, HCT-116; MTT, 72 h; read-out: IC50
Procedure: as §1, §2

[4] = system: SK-MEL-2 (NRAS mut); assay: Cell proliferation MTT assay; format: cell-based; conditions: Homo sapiens, SK-MEL-2; MTT, 72 h; read-out: IC50
Procedure: as §1, §2

[5] = system: MAPK signaling pathway (phospho-CRAF, phospho-MEK1/2, phospho-ERK1/2); assay: Western blotting of MAPK signaling pathway in cells
[6] = system: melanoma PDX; assay: Patient-derived xenograft (PDX); format: in vivo; conditions: oral gavage; erianin, vemurafenib 50 mg/kg once a day; cobimetinib 5 mg/kg twice a week; within 78 days
Procedure: Fig. 7 Erianin exerts antitumor efficacy in melanoma and colorectal cancer in vivo. a Tumor pharmacodynamic assay was performed in tumor-bearing NPG mice (tumor has been passaged from melanoma patient to mice for three generations). The photographs show tumors from melanoma PDX mice treated with vehicle or drugs. b The effect of erianin on the volume of PDX tumors over time (within 78 days) was plotted. Vehicle, erianin (50 mg/kg, once a day), vemurafenib (50 mg/kg, once a day), erianin and vemurafenib combination therapy, cobimetinib (5 mg/kg, twice a week) or vemurafenib and cobimetinib combination therapy (once a day and twice a week, respectively) were administered by oral gavage, n = 8 in each group. Tumor volume was measured once a week. […] Scale bars: 20 μm. One-way ANOVA test. ***p < 0.001. e Antitumor efficacy of erianin with or without immunity using B16F10 cell xenograft in C57BL-6J mouse. f, g Trend of tumor volume over time and tumor weight was measured after treatment on the last day of the study.

[7] = system: SK-MEL-2 (NRAS mut) CDX; assay: Cell-derived xenograft (CDX); format: in vivo, NOD-SCID mice; conditions: 50 mg/kg, oral gavage
Procedure: (§3) Tumor volume (mm^3) = (length × width × height) × 0.52. SK-MEL-2: n = 10; A375 and SK-MEL-28: n = 8; HCT116: n = 9. b The photographs show tumors from CDX mice treated with vehicle, erianin, vemurafenib, or the combination. c The weight of the tumors was quantified and expressed as the treatment groups compared with the vehicle-treated group. […] The tissue lysates were prepared from CDX tumor tissues in each treatment group. […] Each point represents the IOD values of four quantified data from one mouse. Scale bars: 50 μm.
(§4) The animal experiments were performed according to the guidelines approved by the Zhengzhou University Institutional Animal Care and Use Committee. A375 cell line (1 × 10^7 cell/mouse), SK-MEL-28 cell line (5 × 10^6 cell/mouse), SK-MEL-2 cell (5 × 10^6 cell/mouse), and HCT116 cell line (1 × 10^7 cell/mouse) were injected subcutaneously into the NOD-SCID mice (Vital River Labs, Beijing, China). For the melanoma PDX mice model, the tumor was taken after surgical operation and implanted into the NPG (Vital River Labs, Beijing, China) mice under a sterile environment. For the colorectal cancer PDX mice model, NOD-SCID mice were selected as carriers for tumor growth. The measurement of tumor size was performed twice a week using vernier caliper and the calculation of tumor volume was done according to tumor volume (mm^3) = length × width × height × 0.52.

[8] = system: HCT116 (KRAS mut) CDX; assay: Cell-derived xenograft (CDX); format: in vivo, NOD-SCID mice; conditions: 50 mg/kg, oral gavage
Procedure: as §3, §4

[9] = system: A375 (BRAF V600E) CDX; assay: Cell-derived xenograft (CDX); conditions: 50 mg/kg, oral gavage, vs vehicle-treated group
Procedure: as §3, §4

[10] = system: SK-MEL-28 (BRAF V600E) CDX; assay: Cell-derived xenograft (CDX); conditions: 50 mg/kg, oral gavage, vs vehicle-treated group
Procedure: as §3, §4

[11] = A-375, MTT, 72 h, read-out: IC50
[12] = SK-MEL-28, MTT, 72 h, read-out: IC50

Compound | IC50 [1, 11] | IC50 [2, 12] | IC50 [3] | IC50 [4] | other results
Cn1cnc2c(F)c(Nc3ccc(Br)cc3F)c(C(=O)NOCCO)cc21 [Binimetinib] | 60.9 ± 14.4 nM | 129 ± 28.3 nM | 509 ± 145 nM | 240 ± 81.2 nM | 
O=C(c1ccc(F)c(F)c1Nc1ccc(I)cc1F)N1CC(O)([C@@H]2CCCCN2)C1 [Cobimetinib] | 3.2 ± 1.3 nM | 2.6 ± 0.4 nM | 51.3 ± 8.9 nM | 119 ± 38.2 nM | phosphorylation of MEK1/2 ([5]; SK-MEL-2 and HCT116, 24 h): increased phosphorylation of MEK1/2; phosphorylation of ERK1/2 ([5]; both BRAF V600E and RAS mutant cells, 24 h): inhibits phosphorylation of ERK1/2 effectively; tumor volume [6]: no differences between erianin and cobimetinib
CC(C)(C)c1nc(-c2cccc(NS(=O)(=O)c3c(F)cccc3F)c2F)c(-c2ccnc(N)n2)s1 [Dabrafenib] |  |  | > 18000 nM | > 60000 nM | IC50 ([1]; A-375, 72 h): 36.7 ± 9.7 nM; IC50 ([2]; SK-MEL-28, 72 h): 41 ± 15.5 nM
COC(=O)N[C@@H](C)CNc1nccc(-c2cn(C(C)C)nc2-c2cc(Cl)cc(NS(C)(=O)=O)c2F)n1 [Encorafenib] | 9.5 ± 3.9 nM | 6.5 ± 1.2 nM | > 2000 nM | > 9000 nM | 
CNc1ncc2cc(-c3cc(NC(=O)NCCC(C)(C)C)c(F)cc3C)c(C)nc2n1 [LY3009120] |  |  |  |  | kinase activity of CRAF (phosphorylation of CRAF and MEK1/2) ([5]; low dose, 24 h): induced kinase activity of CRAF at a low dose
CC(=O)Nc1cccc(-n2c(=O)n(C3CC3)c(=O)c3c(Nc4ccc(I)cc4F)n(C)c(=O)c(C)c32)c1 [Trametinib] | 2.2 ± 0.8 nM | 1.9 ± 0.2 nM | 22.1 ± 9.2 nM | 50.6 ± 1.7 nM | 
CCCS(=O)(=O)Nc1ccc(F)c(C(=O)c2c[nH]c3ncc(-c4ccc(Cl)cc4)cc23)c1F [Vemurafenib, reference compound] | 314 ± 73.7 nM | 344 ± 36.4 nM | > 20000 nM | > 40000 nM | activation of MAPK signaling pathway (CRAF, MEK1/2, ERK1/2) ([5]; SK-MEL-2 and HCT116, 24 h): induced the paradoxical activation of MAPK signaling pathway; tumor volume [6]: did not suppress tumor volume significantly; tumor volume and tumor weight [7]: poor effect; tumor volume and tumor weight [8]: poor effect; tumor volume [9]: significant decrease; tumor volume [10]: significant decrease
